Measured values from patent US12226409B2, “Treatment of hepatocellular carcinoma” (Eisai R&D Management Co., Ltd., priority 2017, dated 2025).

Assays:
[1] = system: unresectable hepatocellular carcinoma (HCC); experiment: REFLECT study, efficacy per independent review; type: in vivo, human
Procedure: The efficacy of LENVIMA was evaluated in a randomized, open-label, multicenter, international study (REFLECT; […]) conducted in patients with previously untreated unresectable hepatocellular carcinoma (HCC).

[2] = system: patients with unresectable HCC; experiment: Quality of life, EORTC QLQ-C30 and QLQ-HCC18 questionnaires; type: in vivo, human; conditions: role functioning, pain, diarrhea (QLQ-C30); nutrition, body image (QLQ-HCC18)
Procedure: (§1) The primary endpoint was overall survival.
(§2) Tumors were evaluated in accordance with mRECIST (Lencioni R., Semin Liver Dis., 30(1):52-60, 2010); RECIST 1.1 was applied for nonhepatic lesions (Eisenhauer, Eur J Cancer, 45(2):228-47, 2009). The liver was examined with computed tomography or magnetic resonance imaging was performed using a triphasic scanning technique. Assessments were performed every 8 weeks until disease progression. Quality of life questionnaires were administered at baseline, on day 1 of each subsequent treatment cycle, and at the off-treatment visit.

[3] = system: patients with unresectable HCC; experiment: Open-label phase 3 study, safety and side-effect profile (CTCAE v4.0)
Excerpt: (§3) Randomization was stratified according to region (Asia-Pacific or Western regions), macroscopic portal vein invasion and/or extrahepatic spread (yes or no), Eastern Cooperative Oncology Group performance status (0 or 1), and body weight (<60 kg or ≥60 kg).
(§4) Safety assessments included recording of vital signs, hematologic and biochemical laboratory testing, urinalysis, and electrocardiography.

[4] = system: patients with unresectable HCC; conditions: human, in vivo
Excerpt: as §3, §4

[5] = system: unresectable HCC; experiment: Open-label phase 3 noninferiority study, efficacy (tumor assessment by mRECIST); type: in vivo, human
Excerpt: as §1
Patients who were eligible for enrollment had unresectable HCC with diagnosis confirmed histologically or cytologically or with diagnosis confirmed clinically in accordance with the American Association for the Study of Liver Diseases criteria. Included patients also had ≥1 measureable target lesion, based on modified Response Evaluation Criteria in Solid Tumors (Lencioni 2010); Barcelona Clinic Liver Cancer stage B or C categorization (Bruix Hepatology 2011); Child-Pugh class A; and Eastern Cooperative Oncology Group performance status ≤1. All eligible patients had controlled blood pressure (≤150/90 mm Hg), and adequate organ function. Patients with ≥50% liver occupation, clear bile duct invasion, or portal vein invasion at the main portal vein were excluded. Patients also were excluded if that had received prior systemic therapy for HCC.
as §2
The primary endpoint of overall survival was first tested for noninferiority then for superiority. The required number of events for the primary analysis was 700 deaths, based on the fill analysis set. The HR and its 95% confidence interval (CI) were estimated from a Cox proportional hazard model with treatment group as a factor and with the analysis stratified according to the same factors applied for randomization.
A fixed-sequence procedure was followed to control the overall type I error rate of analyses for both the primary and secondary efficacy endpoints at α=0.05 (2-sided). After noninferiority was declared, secondary efficacy endpoints were tested. Differences in progression-free survival and time to progression were evaluated using a stratified log-rank test with randomization stratification factors, with the associated HR and its 95% CI. A difference in the objective response rate was evaluated using the Cochran-Mantel-Haenszel chi-square test with randomized stratification factors as strata, with associated odds ratio and its 95% CI. To assess futility, 2 interim analyses (at 30% and 70% of the target number of events) were performed using Bayesian predictive probability in a noninferiority design by the independent data monitoring committee.

[6] = system: HCC; conditions: cited from earlier work
[7] = Dissociation constant; type: physicochemical; conditions: 25° C.
[8] = Partition coefficient; type: physicochemical; conditions: read-out: partition coefficient (log P value)
[9] = Solubility; type: physicochemical

## CNC(=O)c1cc(Oc2ccc(NC(=O)Nc3ccc(Cl)c(C(F)(F)F)c3)cc2)ccn1 [Sorafenib]
[1]; RECIST 1.1, independent review
  Median PFS: 3.6 months
  PFS Number of Events: 320
  PFS Number of Events (%): (67) %
[1]; in vivo
  Median OS: 12.3 months
  Number of deaths: 350
  Number of deaths (%): (74) %
[1]; mRECIST, independent review
  Median PFS: 3.6 months
  PFS Number of Events: 323
  PFS Number of Events (%): (68) %
[2]
  time to clinically meaningful deterioration of quality of life: deterioration was observed earlier
[3]; 1 event per patient
  treatment-related fatal adverse events included: tumor hemorrhage, ischemic stroke, respiratory failure, and sudden death
[4]
  AEs leading to dose reduction or interruption, subjects: 55.6%
  Dose modification: AST increased: 3.8%
  Dose modification: ascites: 1.1%
  Dose modification: hepatic encephalopathy: 0.6%
  Dose modification: neutrophil count decreased: 1.1%
  Dose modification: pyrexia: 1.1%
  Dose modification: vomiting: 1.3%
  Dose modification: weight decreased: 0.8%
  Dose reduction/interruption: Abdominal pain: 8 (1.7) n (%)
  Dose reduction/interruption: Abdominal pain upper: 2 (0.4) n (%)
  Dose reduction/interruption: Alanine aminotransferase increased: 9 (1.9) n (%)
  Dose reduction/interruption: Anemia: 8 (1.7) n (%)
  Dose reduction/interruption: Ascites: 5 (1.1) n (%)
  Dose reduction/interruption: Aspartate aminotransferase increased: 18 (3.8) n (%)
  Dose reduction/interruption: Asthenia: 9 (1.9) n (%)
  Dose reduction/interruption: Blood and lymphatic system disorders: 13 (2.7) n (%)
  Dose reduction/interruption: Blood bilirubin increased: 14 (2.9) n (%)
  Dose reduction/interruption: Decreased appetite: 15 (3.2) n (%)
  Dose reduction/interruption: Dehydration: 0 (0.0) n (%)
  Dose reduction/interruption: Diarrhea: 35 (7.4) n (%)
  Dose reduction/interruption: Dyspnea: 4 (0.8) n (%)
  Dose reduction/interruption: Edema peripheral: 3 (0.6) n (%)
  Dose reduction/interruption: Esophageal varices hemorrhage: 1 (0.2) n (%)
  Dose reduction/interruption: Fatigue: 17 (3.6) n (%)
  Dose reduction/interruption: Gamma-glutamyltransferase increased: 4 (0.8) n (%)
  Dose reduction/interruption: Gastrointestinal disorders: 72 (15.2) n (%)
  Dose reduction/interruption: General disorders and administration site conditions: 35 (7.4) n (%)
  Dose reduction/interruption: Hepatic encephalopathy: 3 (0.6) n (%)
  Dose reduction/interruption: Hepatic function abnormal: 9 (1.9) n (%)
  Dose reduction/interruption: Hepatobiliary disorders: 19 (4.0) n (%)
  Dose reduction/interruption: Hypertension: 18 (3.8) n (%)
  Dose reduction/interruption: Hyponatremia: 0 (0.0) n (%)
  Dose reduction/interruption: Investigations: 52 (10.9) n (%)
  Dose reduction/interruption: Malaise: 0 (0.0) n (%)
  Dose reduction/interruption: Metabolism and nutrition disorders: 19 (4.0) n (%)
  Dose reduction/interruption: Musculoskeletal and connective tissue disorders: 9 (1.9) n (%)
  Dose reduction/interruption: Myalgia: 0 (0.0) n (%)
  Dose reduction/interruption: Nausea: 9 (1.9) n (%)
  Dose reduction/interruption: Nervous system disorders: 14 (2.9) n (%)
  Dose reduction/interruption: Neutropenia: 0 (0.0) n (%)
  Dose reduction/interruption: Neutrophil count decreased: 5 (1.1) n (%)
  Dose reduction/interruption: PPE syndrome: 18.5%
  Dose reduction/interruption: Palmar-plantar erythrodysesthesia syndrome: 88 (18.5) n (%)
  Dose reduction/interruption: Platelet count decreased: 12 (2.5) n (%)
  Dose reduction/interruption: Proteinuria: 7 (1.5) n (%)
  Dose reduction/interruption: Pyrexia: 5 (1.1) n (%)
  Dose reduction/interruption: Rash: 10 (2.1) n (%)
  Dose reduction/interruption: Rash maculo-papular: 5 (1.1) n (%)
  Dose reduction/interruption: Renal and urinary disorders: 9 (1.9) n (%)
  Dose reduction/interruption: Respiratory, thoracic and mediastinal disorders: 12 (2.5) n (%)
  Dose reduction/interruption: Stomatitis: 2 (0.4) n (%)
  Dose reduction/interruption: Thrombocytopenia: 4 (0.8) n (%)
  Dose reduction/interruption: Vascular disorders: 19 (4.0) n (%)
  Dose reduction/interruption: Vomiting: 6 (1.3) n (%)
  Dose reduction/interruption: Weight decreased: 4 (0.8) n (%)
  Dose reduction/interruption: White blood cell count decreased: 4 (0.8) n (%)
  Dose reduction/interruption: decreased appetite: 3.2%
  Dose reduction/interruption: diarrhea: 7.4%
  Dose reduction/interruption: fatigue: 3.6%
  Dose reduction/interruption: hypertension: 3.8%
  Dose reduction/interruption: proteinuria: 1.5%
  Primary reason for discontinuation of treatment: Adverse event: 43 (9.0) n (%)
  Subjects with Any TEAEs: 472 (99.4) n (%)
  Subjects with any TEAEs leading to Dose Reduction or Interruption: 264 (55.6) n (%)
  TEAE: Abdominal pain: 87 (18.3) n (%)
  TEAE: Abdominal pain upper: 40 (8.4) n (%)
  TEAE: Alanine aminotransferase increased: 52 (10.9) n (%)
  TEAE: Alopecia: 119 (25.1) n (%)
  TEAE: Ascites: 44 (9.3) n (%)
  TEAE: Aspartate aminotransferase increased: 80 (16.8) n (%)
  TEAE: Asthenia: 48 (10.1) n (%)
  TEAE: Back pain: 31 (6.5) n (%)
  TEAE: Blood bilirubin increased: 63 (13.3) n (%)
  TEAE: Constipation: 52 (10.9) n (%)
  TEAE: Edema peripheral: 33 (6.9) n (%)
  TEAE: Fatigue: 119 (25.1) n (%)
  TEAE: Nausea: 68 (14.3) n (%)
  TEAE: Palmar-plantar erythrodysesthesia: 52.4%
  TEAE: Palmar-plantar erythrodysesthesia syndrome: 249 (52.4) n (%)
  TEAE: Platelet count decreased: 58 (12.2) n (%)
  TEAE: Pyrexia: 63 (13.3) n (%)
  TEAE: Rash: 76 (16.0) n (%)
  TEAE: Stomatitis: 56 (11.8) n (%)
  TEAE: Vomiting: 36 (7.6) n (%)
  TEAE: Weight decreased: 106 (22.3) n (%)
  Treatment-emergent adverse events of grade 3 or higher, patients: 66.5%
  Treatment-emergent adverse events, patients: 99.4%
  WBC count deceased, adjusted by treatment duration: 0.15 episodes per SY
  dysphonia, adjusted by treatment duration: 0.28 episodes per SY
  hepatic encephalopathy, adjusted by treatment duration: 0.04 episodes per SY
  hypothyroidism, adjusted by treatment duration: 0.03 episodes per SY
  neutrophil count decreased, adjusted by treatment duration: 0.06 episodes per SY
  proteinuria, adjusted by treatment duration: 0.31 episodes per SY
  subjects without a TEAE: 3 subjects
[5]; Full Analysis Set
  Primary reason for discontinuation of treatment: Disease Progression: 347 (72.9) n (%)
[5]; in vivo
  Median overall survival: 12.3 mo
[5]; mRECIST
  Median progression-free survival: 3.7 mo
  Median time to progression: 3.7 mo
  Objective response rate: 9.2%
[6]; first-line treatment for HCC
  Median overall survival: 10.7 months
[6]; in vivo
  median improvement in overall survival compared with placebo: 2.8 months
  response rate: 2%

## COc1cc2nccc(Oc3ccc(NC(=O)NC4CC4)c(Cl)c3)c2cc1C(N)=O [LENVIMA, 4-[3-chloro-4-(N′-cyclopropylureido)phenoxy]-7-methoxyquinoline-6-carboxamide methanesulfonate]
[7]
  pKa: 5.05
[1]; RECIST 1.1, independent review
  Median PFS: 7.3 months
  Objective response rate: 19%
  PFS Number of Events: 307
  PFS Number of Events (%): (64) %
[1]; in vivo
  Number of deaths: 351
  Number of deaths (%): (73) %
[1]; mRECIST, independent review
  Objective response rate: 41%
  PFS Number of Events: 311
  PFS Number of Events (%): (65) %
[3]; in vivo
  adverse reactions leading to dose reduction or interruption: about 62%
  discontinuation due to fatigue: 1%
  discontinuation due to hepatic encephalopathy: 1%
  discontinuation due to hepatic failure: 1%
  discontinuation due to hyperbilirubinemia: 1%
  dose reduction or interruption due to decreased appetite: 8%
  dose reduction or interruption due to diarrhea: 8%
  dose reduction or interruption due to fatigue: 9%
  dose reduction or interruption due to hypertension: 6%
  dose reduction or interruption due to palmar-plantar erythrodysesthesia syndrome: 5%
  dose reduction or interruption due to proteinuria: 7%
  serious adverse reaction: ascites: 3%
  serious adverse reaction: decreased appetite: 2%
  serious adverse reaction: hepatic encephalopathy: 4%
  serious adverse reaction: hepatic failure: 3%
  treatment discontinuation due to adverse reactions: 20%
[8]
  logP: 3.3
[9]
  solubility in ethanol (dehydrated): practically insoluble
  solubility in water: slightly soluble
